# Legend:
# [1] = system: cotton aphid (Aphis gossypii); assay: Aphis gossypii test (APHIGO), spray treatment of infested cotton leaves; assay type: in vivo; conditions: 0.8 ppm, after 6 d, spray on cotton leaves (Gossypium hirsutum); 100% = all aphids killed, 0% = none killed
# Protocol: Aphis gossypii Test (APHIGO)
# (§1) To produce a suitable preparation of active compound, 1 part by weight of active compound is mixed with the stated amounts of solvent and emulsifier, and the concentrate is diluted with emulsifier-containing water to the desired concentration. If addition of ammonium salts or ammonium salts and penetrant is required, the appropriate amount is added by pipette after dilution of the respective finished preparation solution.
# Cotton leaves (Gossypium hirsutum) which are heavily infested by the cotton aphid (Aphis gossypii) are sprayed with an active compound preparation of the desired concentration.
# (§2) After the desired period of time, the kill in % is determined. 100% means that all aphids have been killed; 0% means that none of the aphids have been killed.
# (§3) In this test, for example, the following embodiments of the invention show good activity: see table below
# [2] = system: Green peach aphid (Myzus persicae); assay: Myzus persicae test (MYZUPE), spray treatment of infested bell pepper plants; assay type: in vivo; conditions: 0.8 ppm, after 6 d, spray on bell pepper plants (Capsicum annuum); 100% = all aphids killed, 0% = none killed
# Protocol: Myzus persicae Test (MYZUPE)
# as §1
# Bell pepper plants (Capsicum annuum) which are heavily infested by the Green peach aphid (Myzus persicaei) are treated by spraying with the active compound preparation of the desired concentration.
# as §2, §3
compound,measurement,setting,value
CNC(=O)c1cc(Cl)cc(C)c1NC(=O)c1cc(Br)nn1-c1ncccc1Cl [Example I-1-3],kill in % (% 6 d),[1],0%
same,kill in % (% 6 d),[2],0%

# Source: patent US20090149506A1, “INSECTICIDAL COMPOSITIONS WITH IMPROVED EFFECT” (Bayer CropScience AG, priority 2005, published 2009)
